Experimental data taken from US9540391B2, “Isomannide derivatives as inhibitors of soluble epoxide hydrolase” (SANOFI, priority 2013, dated 2017).
Counter-ions that a name gives are not always drawn.

target: T1, recombinant sEH (Homo sapiens, UniProt P34913); test: biochemical screening assay for inhibition of soluble epoxide hydrolase (fluorometric, Phome substrate)
T1 construct: made in house; host or cells: Sf9 insect cells
T1 sequence (P34913 1-555): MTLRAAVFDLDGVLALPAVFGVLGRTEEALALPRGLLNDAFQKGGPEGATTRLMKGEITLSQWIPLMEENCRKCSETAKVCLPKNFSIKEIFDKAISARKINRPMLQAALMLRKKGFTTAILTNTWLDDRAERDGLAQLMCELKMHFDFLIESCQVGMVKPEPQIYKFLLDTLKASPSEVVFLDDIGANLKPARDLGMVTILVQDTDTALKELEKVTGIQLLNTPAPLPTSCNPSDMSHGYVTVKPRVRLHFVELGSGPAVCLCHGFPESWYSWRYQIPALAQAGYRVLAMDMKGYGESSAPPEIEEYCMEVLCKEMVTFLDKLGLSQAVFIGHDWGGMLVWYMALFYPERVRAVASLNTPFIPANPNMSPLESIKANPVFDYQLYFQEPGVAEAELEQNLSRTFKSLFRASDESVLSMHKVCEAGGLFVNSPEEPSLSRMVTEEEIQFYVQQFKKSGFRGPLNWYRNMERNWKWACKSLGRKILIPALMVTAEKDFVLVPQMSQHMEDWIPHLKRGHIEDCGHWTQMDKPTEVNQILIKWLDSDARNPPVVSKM
In short: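 Reading fluorescence before substrate addition and after completion corrected for autofluorescence. Reaction: 5 μM Phome, 2 nM recombinant human sEH (Sf9-expressed), compound 0.0001–10 μM, 25 mM Hepes with 0.01% albumin, 15 min pre-incubation then 60 min at 30 °C; IC50 derived from % inhibition.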

SMILES | IC50 [nM]
Cc1ncccc1O[C@H]1CO[C@H]2[C@@H]1OC[C@@H]2NC(=O)NC1CCCNC1 (stereo partly drawn) [Example 82, 1-[(3S,3aR,6S,6aS)-6-(2-methyl-pyridin-3-yloxy)-hexahydro-furo[3,2-b]furan-3-yl]-3-piperidin-3-yl-urea; hydrochloride] | 2620
Cc1ncccc1O[C@H]1CO[C@H]2[C@@H]1OC[C@@H]2NC(=O)NC1CCCN(C(=O)c2ccc(F)cc2)C1 (stereo partly drawn) [Example 83, 1-[1-(4-fluoro-benzoyl)-piperidin-3-yl]-3-[(3S,3aR,6S,6aS)-6-(2-methyl-pyridin-3-yloxy)-hexahydro-furo[3,2-b]furan-3-yl]-urea] | 182
Cc1ncccc1OC1COC2C(NC(=O)NC3CCCN(C(=O)C(C)C)C3)COC12 [Example 84, 1-(1-Isobutyryl-piperidin-3-yl)-3-[(3S,-3aR,6S,6aS)-6-(2-methyl-pyridin-3-yloxy)-hexahydro-furo[3,2-b]furan-3-yl]-urea] | 59
Cc1ncccc1O[C@H]1CO[C@H]2[C@@H]1OC[C@@H]2NC(=O)NC1CCCN(C(=O)C2CC2)C1 (stereo partly drawn) [Example 85, 1-(1-Cyclopropanecarbonyl-piperidin-3-yl)-3-[(3S,3aR,6S,6aS)-6-(2-methyl-pyridin-3-yloxy)-hexahydro-furo[3,2-b]furan-3-yl]-urea] | 20
Cc1ncccc1O[C@H]1CO[C@H]2[C@@H]1OC[C@@H]2NC(=O)NC1CCCN(S(C)(=O)=O)C1 (stereo partly drawn) [Example 86, 1-(1-Methanesulfonyl-piperidin-3-yl)-3-[(3S,3aR,6S,6aS)-6-(2-methyl-pyridin-3-yloxy)-hexahydro-furo[3,2-b]furan-3-yl]-urea] | 41
Cc1ncccc1O[C@H]1CO[C@H]2[C@@H]1OC[C@@H]2NC(=O)NC1CCCN(C(=O)C(F)(F)F)C1 (stereo partly drawn) [Example 87, 1-[(3S,3aR,6S,6aS)-6-(2-Methyl-pyridin-3-yloxy)-hexahydro-furo[3,2-b]furan-3-yl]-3-[1-(2,2,2-trifluoro-acetyl)-piperidin-3-yl]-urea] | 10
Cc1ncccc1O[C@H]1CO[C@H]2[C@@H]1OC[C@@H]2NC(=O)NC1CCCN(C(=O)C(C)(C)C)C1 (stereo partly drawn) [Example 88, 1-[1-(2,2-Dimethyl-propionyl)-piperidin-3-yl]-3-[(3S,3aR,6S,6aS)-6-(2-methyl-pyridin-3-yloxy)-hexahydro-furo[3,2-b]furan-3-yl]-urea] | 53
Cc1ncccc1O[C@H]1CO[C@H]2[C@@H]1OC[C@@H]2NC(=O)NC1CCC(F)(F)CC1 [Example 89, 1-(4,4-difluoro-cyclohexyl)-3-[(3S,3aR,6S,6aS)-6-(2-methyl-pyridin-3-yloxy)-hexahydro-furo[3,2-b]furan-3-yl]-urea] | 5
Cc1ncccc1O[C@H]1CO[C@H]2[C@@H]1OC[C@@H]2NC(=O)NC1CCCC(C(F)(F)F)C1 (stereo partly drawn) [Example 90, 1-[(3S,3aR,6S,6aS)-6-(2-methyl-pyridin-3-yloxy)-hexahydro-furo[3,2-b]furan-3-yl]-3-(3-trifluoromethyl-cyclohexyl)-urea] | 1
Cc1ncccc1O[C@H]1CO[C@H]2[C@@H]1OC[C@@H]2NC(=O)NC1CCOC(C)C1 (stereo partly drawn) [Example 91, 1-[(3S,3aR,6S,6aS)-6-(2-methyl-pyridin-3-yloxy)-hexahydro-furo[3,2-b]furan-3-yl]-3-(2-methyl-tetrahydro-pyran-4-yl)-urea] | 22
CO[C@H]1COCC[C@H]1NC(=O)N[C@H]1CO[C@H]2[C@@H]1OC[C@@H]2Oc1cccnc1C [Example 93, (R)-1-((R)-3-methoxy-tetrahydro-pyran-4-yl)-3-[(3S,3aR,6S,6aS)-6-(2-methyl-pyridin-3-yloxy)-hexahydro-furo[3,2-b]furan-3-yl]-urea] | 32
O=C(N[C@H]1CO[C@H]2[C@@H]1OC[C@@H]2Oc1ccc(F)cc1)N1CCC(F)(F)CC1 [Example 94, 4,4-difluoro-piperidine-1-carboxylic acid [(3S,3aR,6S,6aS)-6-(4-fluoro-phenoxy)-hexahydro-furo[3,2-b]furan-3-yl]-amide] | 2480
O=C(NC1CCCCC1)N[C@H]1CO[C@H]2[C@@H]1OC[C@@H]2Oc1cccc(Cl)c1Cl [Example 97, 1-Cyclohexyl-3-[(3S,3aR,6S,6aS)-6-(2,3-dichloro-phenoxy)-hexahydro-furo[3,2-b]furan-3-yl]-urea] | 3
O=C(NC1CCCCC1)N[C@H]1CO[C@H]2[C@@H]1OC[C@@H]2Oc1ccccc1Cl [Example 98, 1-[(3S,3aR,6S,6aS)-6-(2-Chloro-phenoxy)-hexahydro-furo[3,2-b]furan-3-yl]-3-cyclohexyl-urea] | 2
O=C(NC1CCCCC1)N[C@H]1CO[C@H]2[C@@H]1OC[C@@H]2Oc1cccc(N2CCOCC2)c1 [Example 100, 1-Cyclohexyl-3-[(3S,3aR,6S,6aS)-6-(3-morpholin-4-yl-phenoxy)-hexa-hydro-furo[3,2-b]furan-3-yl]-urea] | 2
O=C(NC1CCCCC1)N[C@H]1CO[C@H]2[C@@H]1OC[C@@H]2Oc1cccc(C2CCNCC2)c1 [Example 108, 1-Cyclohexyl-3-[(3S,3aR,6S,6aS)-6-(3-piperidin-4-yl-phenoxy)-hexahydro-furo[3,2-b]furan-3-yl]-urea; trifluoroacetate] | 23
O=C(NC1CCCCC1)N[C@H]1CO[C@H]2[C@@H]1OC[C@@H]2Oc1ccccc1C(=O)N1CCCC1 [Example 110, 1-Cyclohexyl-3-{(3S,3aR,6S,6aS)-6-[2-(pyrrolidine-1-carbonyl)-phenoxy]-hexahydro-furo[3,2-b]furan-3-yl}-urea] | 140
COC(=O)c1cncc(O[C@H]2CO[C@H]3[C@@H]2OC[C@@H]3NC(=O)NC2CCCCC2)c1 [Example 111, 5-[(3S,3aS,6S,6aR)-6-(3-Cyclohexyl-ureido)-hexahydro-furo[3,2-b]furan-3-yloxy]-nicotinic acid methyl ester] | 1

Next, values leading:

IC50 [nM] | SMILES
5 | O=C(NC1CCCCC1)N[C@H]1CO[C@H]2[C@@H]1OC[C@@H]2Oc1ccccc1F [Example 95, 1-Cyclohexyl-3-[(3S,3aR,6S,6aS)-6-(2-fluoro-phenoxy)-hexahydro-furo[3,2-b]furan-3-yl]-urea]
4 | O=C(NC1CCCCC1)N[C@H]1CO[C@H]2[C@@H]1OC[C@@H]2Oc1cccnc1 [Example 96, 1-Cyclohexyl-3-[(3S,3aR,6S,6aS)-6-(pyridin-3-yloxy)-hexahydro-furo[3,2-b]furan-3-yl]-urea; trifluoroacetate]
12 | O=C(NC1CCCCC1)N[C@H]1CO[C@H]2[C@@H]1OC[C@@H]2Oc1ccc2cc(Br)ccc2c1 [Example 99, 1-[(3S,3aR,6S,6aS)-6-(6-Bromo-naphthalen-2-yloxy)-hexahydro-furo-[3,2-b]furan-3-yl]-3-cyclohexyl-urea]
4 | O=C(NC1CCCCC1)N[C@H]1CO[C@H]2[C@@H]1OC[C@@H]2Oc1ccc(C(F)(F)F)cc1 [Example 101, 1-Cyclohexyl-3-[(3S,3aR,6S,6aS)-6-(4-trifluoromethyl-phenoxy)-hexa-hydro-furo[3,2-b]furan-3-yl]-urea]
2 | CC(=O)Nc1cccc(O[C@H]2CO[C@H]3[C@@H]2OC[C@@H]3NC(=O)NC2CCCCC2)c1 [Example 102, N-{3-[(3S,3aS,6S,6aR)-6-(3-Cyclohexyl-ureido)-hexahydro-furo[3,2-b]furan-3-yloxy]-phenyl}-acetamide]
7 | CC(C)(C)c1ccc(O[C@H]2CO[C@H]3[C@@H]2OC[C@@H]3NC(=O)NC2CCCCC2)cc1 [Example 103, 1-[(3S,3aR,6S,6aS)-6-(4-tert-Butyl-phenoxy)-hexahydro-furo[3,2-b]furan-3-yl]-3-cyclohexyl-urea]
5 | O=C(NC1CCCCC1)N[C@H]1CO[C@H]2[C@@H]1OC[C@@H]2Oc1cccc(-c2ccccc2)c1 [Example 104, 1-[(3S,3aR,6S,6aS)-6-(Biphenyl-3-yloxy)-hexahydro-furo[3,2-b]furan-3-yl]-3-cyclohexyl-urea]
7 | O=C(NC1CCCCC1)N[C@H]1CO[C@H]2[C@@H]1OC[C@@H]2Oc1ccc(-c2ccccc2)cc1 [Example 105, 1-[(3S,3aR,6S,6aS)-6-(Biphenyl-4-yloxy)-hexahydro-furo[3,2-b]furan-3-yl]-3-cyclohexyl-urea]
3 | CC(=O)c1cccc(O[C@H]2CO[C@H]3[C@@H]2OC[C@@H]3NC(=O)NC2CCCCC2)c1 [Example 106, 1-[(3S,3aR,6S,6aS)-6-(3-Acetyl-phenoxy)-hexahydro-furo[3,2-b]furan-3-yl]-3-cyclohexyl-urea]
2 | O=C(NC1CCCCC1)N[C@H]1CO[C@H]2[C@@H]1OC[C@@H]2Oc1cccc(N2CCCC2=O)c1 [Example 107, 1-Cyclohexyl-3-{(3S,3aR,6S,6aS)-6-[3-(2-oxo-pyrrolidin-1-yl)-phenoxy]-hexahydro-furo[3,2-b]furan-3-yl}-urea]
1 | O=C(NC1CCCCC1)N[C@H]1CO[C@H]2[C@@H]1OC[C@@H]2Oc1ccc(Oc2ccccn2)cc1 [Example 109, 1-Cyclohexyl-3-{(3S,3aR,6S,6aS)-6-[4-(pyridin-2-yloxy)-phenoxy]-hexa-hydro-furo[3,2-b]furan-3-yl}-urea]
1 | O=C(NC1CCCCC1)N[C@H]1CO[C@H]2[C@@H]1OC[C@@H]2Oc1ccc(-n2cncn2)cc1 [Example 112, 1-Cyclohexyl-3-[(3S,3aR,6S,6aS)-6-(4-[1,2,4]triazol-1-yl-phenoxy)-hexahydro-furo[3,2-b]furan-3-yl]-urea; trifluoroacetate]
